From patent US20210238173A1, “MITOGEN-ACTIVATED PROTEIN KINASE KINASE 7 INHIBITORS” (Yeda Research and Development Co. Ltd., priority 2018, published 2021) come the findings set out here.

One experiment concerns the target JAK3 (Homo sapiens, UniProt P52333). As to the kind of experiment: Kinome selectivity screen JAK3. The format is biochemical. Conditions: 1 μM compound. Here is the method: (§1) Kinome Selectivity Screen:
(§2) Kinase selectivity was assessed using the Life Technologies SelectScreen Kinase Profiling Service in a custom panel of 76 kinases selected to provide broad representative coverage of all kinase families. Kinase activity assays employed either the Z′-LYTE or Adapta assay technologies with ATP concentrations at or near the KM, ATP for each kinase and a test compound concentration of 1 μM.

The next experiment deals with RPS6KB1 (p70S6K) (Homo sapiens, UniProt P23443). Nature of the experiment: Kinome selectivity screen RPS6KB1. The format is biochemical. Conditions: 1 μM compound. Here is the method:
as §1, §2

The target of another experiment is NEK1 (Homo sapiens, UniProt Q96PY6). Nature of the experiment: Kinome selectivity screen NEK1. Format: biochemical. Conditions: 1 μM compound. As to the method: as §1, §2
The target in another experiment is MET (cMet) (Homo sapiens, UniProt P08581). Nature of the experiment: Kinome selectivity screen MET. The format is biochemical. Conditions: 1 μM compound. As to the method:
as §1, §2

Another experiment concerns the target PAK4 (Homo sapiens, UniProt O96013). Nature of the experiment: Kinome selectivity screen PAK4. Conditions: 1 μM compound. Format: biochemical. As to the method: as §1, §2
The next experiment addresses AURKB (Aurora B) (Homo sapiens, UniProt Q96GD4). As to the kind of experiment: Kinome selectivity screen AURKB. Conditions: 1 μM compound. The format is biochemical. Here is the method:
as §1, §2

A further experiment addresses TAOK2 (TAO1) (Homo sapiens, UniProt Q9UL54). As to the kind of experiment: Kinome selectivity screen TAOK2. Format: biochemical. Conditions: 1 μM compound. Here is the method:
as §1, §2

In experiment [1] the target is PIK3CA/PIK3R1 (p110 alpha/p85 alpha) (Homo sapiens, UniProt P42336). Nature of the experiment: Kinome selectivity screen PIK3CA/PIK3R1. The conditions noted are these: 1 μM compound. Format: biochemical. As to the method:
as §1, §2

The next experiment concerns the target MAP2K4 (MEK4) (Homo sapiens, UniProt P45985). Nature of the experiment: Kinome selectivity screen MAP2K4. Conditions: 1 μM compound. The format is biochemical. Here is the method:
as §1, §2

The target of another experiment is STK22D (TSSK1) (Homo sapiens, UniProt Q9BXA7). Nature of the experiment: Kinome selectivity screen STK22D. Format: biochemical. The conditions noted are these: 1 μM compound. As to the method:
as §1, §2

A further experiment concerns the target NTRK1 (TRKA) (Homo sapiens, UniProt P04629). Nature of the experiment: Kinome selectivity screen NTRK1. The format is biochemical. The conditions noted are these: 1 μM compound. Here is the method: as §1, §2
Another experiment has as its target KIT (Homo sapiens, UniProt P10721). As to the kind of experiment: Kinome selectivity screen KIT. The format is biochemical. The conditions noted are these: 1 μM compound. As to the method:
as §1, §2

The target of the next experiment is ROCK2 (Homo sapiens, UniProt O75116). Nature of the experiment: Kinome selectivity screen ROCK2. The format is biochemical. The conditions noted are these: 1 μM compound. Here is the method:
as §1, §2

Another experiment concerns the target MAP3K9 (MLK1) (Homo sapiens, UniProt P80192). As to the kind of experiment: Kinome selectivity screen MAP3K9. Conditions: 1 μM compound. The format is biochemical. As to the method:
as §1, §2

For a further experiment, the target named is PHKG2 (Homo sapiens, UniProt P15735). As to the kind of experiment: Kinome selectivity screen PHKG2. The format is biochemical. The conditions noted are these: 1 μM compound. As to the method:
as §1, §2

The target in the next experiment is PIM2 (Homo sapiens, UniProt Q9P1W9). Nature of the experiment: Kinome selectivity screen PIM2. The format is biochemical. The conditions noted are these: 1 μM compound. Here is the method: as §1, §2
The next experiment deals with PIM1 (Homo sapiens, UniProt P11309). Nature of the experiment: Kinome selectivity screen PIM1. The format is biochemical. Conditions: 1 μM compound. As to the method: as §1, §2
A further experiment concerns pATF2 in HEK293 cells. As to the kind of experiment: pATF2 inhibition in HEK293 cells. Format: cell-based. The conditions noted are these: Homo sapiens. As to the method: HEK293, Beas2B and 3T3 cells were plated 24 hours before procedure on 384 well clear bottom black flat plates (Corning) pre-coated with Fibronectin (Sigma) diluted in PBS to a concentration of 5 μg/ml 45 minutes prior to cells introduction. Cells were plated using Multidrop™ Combi reagent dispenser (Thermo Fisher Scientific). Compound, reagents and antibody dispensing as well as washes were performed with a CyBio liquid handler (Analytik). Cells were pre-incubated with a small molecule or up to 1% DMSO for 2 h before fixation. HEK293, 3T3 or Beas2B cells were treated with 0.6M/0.2M/0.2M D-Sorbitol/PBS (Sigma) for 20/40/40 min. respectively, before fixation. Media was removed and wells were immediately fixed with 150 μl per well of 3.7% formaldehyde/PBS fixing solution for 20 min. Formaldehyde was then aspired and cells were permeabilized with 150 μl of 0.5% Triton x-100/PBS solution for 10 min. After aspiration cells were washed with ice-cold methanol and stored at −20° C., for 10 min. Methanol was aspired and cells were blocked with 150 μl blocking buffer (LICOR) for 90 min. Primary antibody Phospho-SAPK/JNK T183/Y185 (CST; 9251S) was diluted 1:1000 in blocking buffer and was applied 50 μl per well, except control wells to which only blocking buffer was applied, O.N. (16 h) at 4° C. with mild shaking. […] Wells signals were analyzed with Odyssey software. […]
To rapidly assess the cellular activity (EC50) with full dose response curves of the MKK7 covalent inhibitors, according to some embodiments of the present invention, an in-cell western assay was adapted to a 384 well plate format over traditional western blot, and monitored phospho-JNK (pJNK) levels in response to osmotic shock. […] The compound's activity was assessed by pre-treating cells with either compound or DMSO for 2 hours, followed by Sorbitol stimulation. The response of pJNK, and its substrates, pc-Jun and pATF2, was measured, as well as pP38, which is a substrate of MKK4 but not MKK7, and pERK in HEK293 cells, and the results are presented in Table 5 below.

The target of the next experiment is DCAMKL2 (DCK2) (Homo sapiens, UniProt Q8N568). Nature of the experiment: Kinome selectivity screen DCAMKL2. The format is biochemical. Conditions: 1 μM compound. Here is the method: as §1, §2
The next experiment addresses MAPK1 (ERK2) (Homo sapiens, UniProt P28482). As to the kind of experiment: Kinome selectivity screen MAPK1. The format is biochemical. The conditions noted are these: 1 μM compound. Here is the method: as §1, §2
The next experiment deals with SRC (Homo sapiens, UniProt P12931). Nature of the experiment: Kinome selectivity screen SRC. The format is biochemical. Conditions: 1 μM compound. As to the method: as §1, §2
Another experiment deals with MAP2K1 (MEK1) (Homo sapiens, UniProt Q02750). Nature of the experiment: Kinome selectivity screen MAP2K1. Format: biochemical. Conditions: 1 μM compound. Here is the method:
as §1, §2

Chain of TAOK2 (TAO1) (Q9UL54 whole entry): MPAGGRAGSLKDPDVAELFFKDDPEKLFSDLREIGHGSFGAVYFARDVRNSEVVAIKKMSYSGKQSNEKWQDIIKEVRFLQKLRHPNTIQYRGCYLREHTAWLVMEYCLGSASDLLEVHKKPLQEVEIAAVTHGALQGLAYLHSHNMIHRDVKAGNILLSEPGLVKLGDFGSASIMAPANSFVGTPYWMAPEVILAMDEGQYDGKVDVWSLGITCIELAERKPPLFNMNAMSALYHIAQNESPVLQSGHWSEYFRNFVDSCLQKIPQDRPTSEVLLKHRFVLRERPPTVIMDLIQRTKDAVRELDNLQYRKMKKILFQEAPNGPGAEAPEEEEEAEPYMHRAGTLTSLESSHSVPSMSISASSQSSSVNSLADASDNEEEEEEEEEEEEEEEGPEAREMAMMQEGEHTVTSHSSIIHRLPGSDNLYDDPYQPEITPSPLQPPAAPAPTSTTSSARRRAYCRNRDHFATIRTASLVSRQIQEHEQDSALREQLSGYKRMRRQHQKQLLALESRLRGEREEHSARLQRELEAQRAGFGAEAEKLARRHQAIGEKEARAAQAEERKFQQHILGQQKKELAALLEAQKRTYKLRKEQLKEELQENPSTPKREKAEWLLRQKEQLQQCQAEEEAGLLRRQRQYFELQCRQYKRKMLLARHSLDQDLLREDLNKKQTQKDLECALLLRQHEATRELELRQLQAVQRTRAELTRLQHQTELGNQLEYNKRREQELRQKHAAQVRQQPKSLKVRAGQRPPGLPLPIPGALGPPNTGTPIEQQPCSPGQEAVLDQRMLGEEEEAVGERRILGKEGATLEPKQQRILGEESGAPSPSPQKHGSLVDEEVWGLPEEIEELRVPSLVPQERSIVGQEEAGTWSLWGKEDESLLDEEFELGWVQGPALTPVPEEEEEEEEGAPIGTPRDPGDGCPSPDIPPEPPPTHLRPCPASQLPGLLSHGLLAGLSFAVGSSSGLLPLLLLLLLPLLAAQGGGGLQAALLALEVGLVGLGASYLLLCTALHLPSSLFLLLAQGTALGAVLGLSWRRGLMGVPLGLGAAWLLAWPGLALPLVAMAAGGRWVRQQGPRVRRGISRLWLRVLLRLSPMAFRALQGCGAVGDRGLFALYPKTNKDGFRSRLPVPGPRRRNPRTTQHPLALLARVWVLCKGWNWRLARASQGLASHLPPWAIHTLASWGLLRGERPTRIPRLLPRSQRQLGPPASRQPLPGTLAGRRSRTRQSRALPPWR
Chain of NEK1 (Q96PY6 whole entry): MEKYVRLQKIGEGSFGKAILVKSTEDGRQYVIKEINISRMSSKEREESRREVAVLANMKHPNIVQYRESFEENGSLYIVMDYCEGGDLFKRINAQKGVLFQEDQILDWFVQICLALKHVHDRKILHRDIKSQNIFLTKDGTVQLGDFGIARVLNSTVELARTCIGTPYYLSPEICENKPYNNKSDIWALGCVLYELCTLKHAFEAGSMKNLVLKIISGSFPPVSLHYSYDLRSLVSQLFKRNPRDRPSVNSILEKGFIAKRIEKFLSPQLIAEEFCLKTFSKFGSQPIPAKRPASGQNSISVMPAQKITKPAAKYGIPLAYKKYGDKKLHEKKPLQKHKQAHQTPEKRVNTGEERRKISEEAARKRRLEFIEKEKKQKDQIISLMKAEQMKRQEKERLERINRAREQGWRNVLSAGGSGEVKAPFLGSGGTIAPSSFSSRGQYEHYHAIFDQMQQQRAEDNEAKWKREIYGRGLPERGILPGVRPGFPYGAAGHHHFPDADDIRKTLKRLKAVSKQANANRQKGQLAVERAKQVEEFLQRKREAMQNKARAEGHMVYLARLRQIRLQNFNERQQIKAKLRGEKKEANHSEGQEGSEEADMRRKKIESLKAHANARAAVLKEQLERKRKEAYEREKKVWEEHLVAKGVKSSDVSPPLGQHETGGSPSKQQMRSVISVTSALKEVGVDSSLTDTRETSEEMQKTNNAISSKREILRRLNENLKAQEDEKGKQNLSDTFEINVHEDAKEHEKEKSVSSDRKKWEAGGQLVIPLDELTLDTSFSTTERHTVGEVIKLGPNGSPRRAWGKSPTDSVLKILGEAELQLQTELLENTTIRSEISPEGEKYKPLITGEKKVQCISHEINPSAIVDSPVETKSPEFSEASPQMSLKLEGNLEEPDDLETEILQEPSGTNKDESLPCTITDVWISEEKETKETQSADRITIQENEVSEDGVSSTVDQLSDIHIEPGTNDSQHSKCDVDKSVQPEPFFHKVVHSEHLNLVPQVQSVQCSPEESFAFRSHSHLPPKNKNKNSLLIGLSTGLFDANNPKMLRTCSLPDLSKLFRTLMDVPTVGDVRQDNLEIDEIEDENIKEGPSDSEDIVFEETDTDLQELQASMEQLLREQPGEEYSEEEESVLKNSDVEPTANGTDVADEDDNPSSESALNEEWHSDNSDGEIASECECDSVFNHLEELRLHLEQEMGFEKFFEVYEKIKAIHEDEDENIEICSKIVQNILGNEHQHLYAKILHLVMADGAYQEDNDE
Chain of RPS6KB1 (p70S6K) (P23443 whole entry): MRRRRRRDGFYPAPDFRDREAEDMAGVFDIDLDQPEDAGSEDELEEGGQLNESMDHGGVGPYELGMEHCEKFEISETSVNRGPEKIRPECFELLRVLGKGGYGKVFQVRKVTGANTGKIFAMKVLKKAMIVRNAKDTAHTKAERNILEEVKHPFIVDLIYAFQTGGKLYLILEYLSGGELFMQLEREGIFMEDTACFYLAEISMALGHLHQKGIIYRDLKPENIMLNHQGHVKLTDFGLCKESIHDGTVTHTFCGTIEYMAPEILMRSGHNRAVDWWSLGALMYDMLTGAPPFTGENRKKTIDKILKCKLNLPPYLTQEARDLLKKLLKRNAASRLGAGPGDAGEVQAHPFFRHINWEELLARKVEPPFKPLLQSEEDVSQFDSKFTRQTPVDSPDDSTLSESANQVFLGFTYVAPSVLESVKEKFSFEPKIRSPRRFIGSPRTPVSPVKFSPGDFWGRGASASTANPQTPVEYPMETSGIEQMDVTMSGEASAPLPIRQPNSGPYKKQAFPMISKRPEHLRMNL
Chain of NTRK1 (TRKA) (P04629 33-796): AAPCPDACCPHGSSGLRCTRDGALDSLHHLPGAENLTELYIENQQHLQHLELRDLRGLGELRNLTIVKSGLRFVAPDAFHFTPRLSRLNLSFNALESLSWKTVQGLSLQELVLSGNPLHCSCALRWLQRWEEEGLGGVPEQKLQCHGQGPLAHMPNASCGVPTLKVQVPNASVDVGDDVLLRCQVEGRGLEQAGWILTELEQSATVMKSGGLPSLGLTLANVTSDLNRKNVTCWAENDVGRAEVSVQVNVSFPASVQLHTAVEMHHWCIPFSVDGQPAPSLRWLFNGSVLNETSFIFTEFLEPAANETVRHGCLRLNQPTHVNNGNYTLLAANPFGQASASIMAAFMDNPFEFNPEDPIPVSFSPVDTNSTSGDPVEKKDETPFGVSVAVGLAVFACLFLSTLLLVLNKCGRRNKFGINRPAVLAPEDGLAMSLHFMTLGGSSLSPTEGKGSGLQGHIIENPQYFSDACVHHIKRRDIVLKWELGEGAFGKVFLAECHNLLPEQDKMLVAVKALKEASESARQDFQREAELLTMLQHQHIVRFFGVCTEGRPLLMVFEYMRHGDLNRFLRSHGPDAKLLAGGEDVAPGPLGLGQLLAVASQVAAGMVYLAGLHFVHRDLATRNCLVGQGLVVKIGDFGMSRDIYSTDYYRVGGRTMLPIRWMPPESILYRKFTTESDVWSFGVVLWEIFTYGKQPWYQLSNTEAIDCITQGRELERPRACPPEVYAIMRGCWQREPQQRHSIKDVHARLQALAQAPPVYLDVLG
Chain of PHKG2 (P15735 whole entry): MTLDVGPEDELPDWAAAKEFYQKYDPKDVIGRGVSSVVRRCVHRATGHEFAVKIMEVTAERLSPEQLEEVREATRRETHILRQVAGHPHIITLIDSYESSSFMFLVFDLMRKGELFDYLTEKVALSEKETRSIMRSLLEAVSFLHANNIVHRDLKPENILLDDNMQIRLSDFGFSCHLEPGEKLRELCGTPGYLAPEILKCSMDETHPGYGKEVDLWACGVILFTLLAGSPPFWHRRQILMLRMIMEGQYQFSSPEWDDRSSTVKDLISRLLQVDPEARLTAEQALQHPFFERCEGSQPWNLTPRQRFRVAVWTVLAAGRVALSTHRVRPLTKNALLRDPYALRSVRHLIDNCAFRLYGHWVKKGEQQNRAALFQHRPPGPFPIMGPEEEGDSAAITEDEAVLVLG
Chain of MAP2K4 (MEK4) (P45985 whole entry): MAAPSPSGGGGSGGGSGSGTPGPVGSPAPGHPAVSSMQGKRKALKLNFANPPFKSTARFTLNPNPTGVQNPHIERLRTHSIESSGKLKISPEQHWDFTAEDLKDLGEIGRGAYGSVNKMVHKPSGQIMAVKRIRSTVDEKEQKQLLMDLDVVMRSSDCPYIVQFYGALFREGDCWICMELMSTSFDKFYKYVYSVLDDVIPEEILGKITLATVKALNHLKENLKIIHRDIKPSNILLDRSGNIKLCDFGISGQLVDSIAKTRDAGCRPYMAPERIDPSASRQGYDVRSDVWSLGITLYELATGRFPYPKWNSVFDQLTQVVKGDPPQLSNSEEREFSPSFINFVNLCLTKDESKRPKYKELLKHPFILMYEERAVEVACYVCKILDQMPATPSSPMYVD
Chain of MAP2K1 (MEK1) (Q02750 whole entry): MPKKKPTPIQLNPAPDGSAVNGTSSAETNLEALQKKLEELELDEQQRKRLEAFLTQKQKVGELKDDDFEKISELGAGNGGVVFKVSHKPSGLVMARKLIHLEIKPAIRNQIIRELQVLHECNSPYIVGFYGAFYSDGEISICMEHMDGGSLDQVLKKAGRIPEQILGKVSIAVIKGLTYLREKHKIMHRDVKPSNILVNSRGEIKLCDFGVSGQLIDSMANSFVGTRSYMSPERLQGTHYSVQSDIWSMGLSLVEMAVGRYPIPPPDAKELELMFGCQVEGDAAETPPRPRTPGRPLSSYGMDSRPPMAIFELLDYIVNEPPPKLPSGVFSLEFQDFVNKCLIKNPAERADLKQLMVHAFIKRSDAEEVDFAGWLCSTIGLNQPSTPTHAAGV

As for `C=CC(=O)Nc1cccc(-c2n[nH]c3ccccc23)c1` [GO32], the inhibition at 1 µM was 89% against JAK3; 5% at RPS6KB1 (p70S6K); 5% against NEK1; 9% against MET (cMet); -11% on PAK4; 79% at AURKB (Aurora B). For the same compound, the inhibition at 1 µM against TAOK2 (TAO1) was 12%; in [1], -6%; at MAP2K4 (MEK4), 79%; at STK22D (TSSK1) it was 0%; against NTRK1 (TRKA) it was 22%; against KIT, 17%. Besides, the inhibition at 1 µM against ROCK2 is -2%; on MAP3K9 (MLK1), 37%; on PHKG2, 1%; at PIM2, -2%; against PIM1, 1%; against DCAMKL2 (DCK2), -2%. For the same compound, the inhibition at 1 µM was -3% at MAPK1 (ERK2), 10% against SRC and 4% against MAP2K1 (MEK1). The compound further had an EC50 with pATF2 in HEK293 cells of 2.79 µM.

For `C=CC(=O)Nc1cccc(-c2n[nH]c3cc(C)ccc23)c1` [GO80], the inhibition at 1 µM at JAK3 is 64%; on RPS6KB1 (p70S6K), 0%; on NEK1 it was 2%; against MET (cMet), 13%; on PAK4, -16%; against AURKB (Aurora B), 77%. The inhibition at 1 µM was 14% on TAOK2 (TAO1); -19% in experiment [1]; 81% against MAP2K4 (MEK4); -1% against STK22D (TSSK1); 44% against NTRK1 (TRKA); 10% against KIT. Moreover, the inhibition at 1 µM on ROCK2 was -4%; at MAP3K9 (MLK1), 8%; against PHKG2, 7%; against PIM2 it was 3%; on PIM1, 5%; at DCAMKL2 (DCK2), -1%. Also, the inhibition at 1 µM at MAPK1 (ERK2) was 3%; at SRC it was -4%; at MAP2K1 (MEK1), 4%. The same compound showed an EC50 in the experiment with pATF2 in HEK293 cells of 5.19 µM.
